Patent US9486461B2, “Methods and compositions for inducing apoptosis by stimulating ER stress” (UNIVERSITY OF SOUTHERN CALIFORNIA, priority 2007, dated 2016)
“And” between values parts separate entries of the source, which are not always exact repeats. Equal values may be shown once.

Experiments:
CHOP protein = experiment: Western blot of CHOP in various cancer cell lines; type: cell-based; conditions: glioblastoma, breast carcinoma, pancreatic carcinoma, Burkitt's lymphoma, multiple myeloma cell lines; Cxb 40 and 60 μM, DMC 30 and 50 μM; 48 hours
Protocol: Total cellular lysates were prepared and analyzed by Western blot analysis with specific antibodies to CHOP. As a control for equal loading, all blots were also analyzed with antibodies to actin (only one of these control blots is shown at the bottom). The tumor type of each cell line is indicated on the right.
(§1) Total cell lysates were prepared by lysis of cells with radioimmunoprecipitation assay buffer (28), and protein concentrations were determined using the bicinchoninic acid protein assay reagent (Pierce, Rockford, Ill.). For Western blot analysis, 50 Ag of each sample were processed as described (29). The primary antibodies were purchased from Cell Signaling Technologies (Beverly, Mass.), Cayman Chemical (Ann Arbor, Mich.), or Santa Cruz Biotechnology, Inc. (Santa Cruz, Calif.) and used according to the manufacturer's recommendations. The secondary antibodies were coupled to horseradish peroxidase and detected by chemiluminescence using the SuperSignal West substrate from Pierce. All immunoblots were repeated at least once to confirm the results.

[1] = system: CHOP, GRP78, caspase 4 in U251 glioblastoma cells; experiment: Western blot of ER stress indicators in U251 cells; type: cell-based, human; conditions: for CHOP expression, time kinetics: U251, 50 μmol/L, 4 h up to 24 h
Protocol: U251 glioblastoma cells were cultured in the presence of 1 μM thapsigargin (Tg) or 60 μM DMC for various times, as indicated. Total cell lysates were prepared and analyzed by Western blot with specific antibodies to the ER stress proteins GRP78, CHOP, and caspase 4 (Casp 4). Actin was used as a loading control.
Shown are (A) time kinetics at 50 μM of each drug, and (B) concentration dependence after 15 hours of incubation.
Shown are (FIG. 7A) time kinetics at 50 μM of each drug, and (FIG. 7B), concentration dependence after 15 hours of incubation.
U251 glioblastoma cells were cultured for 24 hours in the presence of increasing concentrations of (A) bortezomib (BZM) or (B) DMC. Total cell lysates were analyzed by Western blot with specific antibodies to ubiquitin, GRP78, CHOP, and caspase 4. Actin was used as a loading control.
as §1
Total cell lysates were prepared and analyzed by Western blot analysis as described earlier (19). Immunohistochemical analysis of protein expression in tumor tissues was performed with the use of the Vectastain avidin-biotin complex method kit (Vector Laboratories) as described previously (32). The primary antibodies were purchased from Cell Signaling Technology or Santa Cruz Biotechnology, Inc. and used according to the manufacturers' recommendations. All immunoblots and stainings were repeated at least once to confirm the results.

cellular translation = experiment: Incorporation of 35S-methionine into newly translated proteins; type: cell-based; conditions: 2 h of treatment
[2] = system: CHOP protein in U87 glioblastoma tumor tissue; experiment: Immunohistochemical staining for CHOP in xenograft tumor tissue; type: in vivo, nude mice; conditions: for CHOP staining of tumor tissues: 30-180 mg/kg per day for 50 h, DMC and celecoxib already at lowest dosages
Text: In all cases, representative sections are shown.
Immunohistochemical analysis of protein expression in tumor tissues was done with the use of the Vectastain avidin-biotin complex method kit (Vector Laboratories, Burlingame, Calif.) according to the manufacturer's instructions. This procedure uses biotinylated secondary antibodies and a preformed avidin: biotinylated enzyme complex that has been termed the avidin-biotin complex method technique. As the primary antibody, we used anti-CHOP antibody (Santa Cruz Biotechnology) diluted 1:100 in 2% normal goat blocking serum.

[3] = Drug concentrations in plasma and tumor tissue by LC-MS; type: in vivo; conditions: 50 h; for Tumor tissue levels (approximately μmol/L) / Tumor tissue levels: U87 tumor tissue; for Maximum plasma levels: tumor-bearing nude mice
Protocol: Blood was collected in heparinized syringes using cardiac puncture of nude mice. The blood was allowed to settle at room temperature for 30 min followed by centrifugation at 2,000 rpm for 5 min at 4° C. The plasma was separated from the cells and transferred to a fresh tube. […] After thorough vortexing, plasma proteins were precipitated using 425 μL acetonitrile and vortexing for 1 min. The entire mixture was centrifuged at 4,500 rpm for 5 min to separate the protein precipitate, and 400 μL of the supernatant were transferred to a fresh tube. The sample was evaporated using a steady stream of air, and the dried residue was reconstituted using 150 μL of mobile phase consisting of 80:20 (v/v) methanol:10 mmol/L ammonium acetate (pH 4.5). To remove any undissolved precipitates, the samples were again centrifuged at 4,500 rpm for 5 min, and the supernatant was transferred to a fresh tube. Ten microliters of each sample were analyzed in duplicate by liquid chromatography mass spectrometry.
To determine the amount of drug in each sample, an Agilent 1100 high-pressure liquid chromatography system (Agilent Technologies, Santa Clara, Calif.) coupled onto a Sciex API 3000 triple quadruple tandem mass spectrometer (Applied Biosystems, Foster City, Calif.) was used. To separate the analytes, a Thermo HyPURITY C18 column (50×4.6 mm, 3 micron; Thermo Fisher Scientific, Inc., Waltham, Mass.) was used. The mobile phase consisted of 80:20 (v/v) methanol:10 mmol/L ammonium acetate (pH 4.5). […] The analytes were then introduced into the Sciex API 3000, which was set in the negative ion mode. […] The lower level of quantification of this assay was established at 5 ng/mL.

[4] = system: U87MG glioblastoma cell line; experiment: MTT assay, U87MG; type: cell-based; conditions: Homo sapiens, U-87 MG, 48 h, read-out: IC50 (50% inhibition of cell growth)
Protocol: (§2) For comparison purposes to the known anti-multiple myeloma effects of bortezomib, the RPMI/8226 multiple myeloma cell line was included in (A).
(§3) 3-(4,5-Dimethylthiazol-2-yl)-2,5-diphenyltetrazolium bromide (MTT) assays were performed in 96-well plates with the use of 3.0×10^3 to 8.0×10^3 cells per well as described in detail elsewhere (19).

[5] = system: LN229 glioblastoma cell line; experiment: MTT assay, LN229; type: cell-based, human; conditions: LN229, 48 h
Protocol: as §2, §3

[6] = 30 mg/kg/d, average of two measurements
[7] = 30 mg/kg/d, half dose every 12 h into the stomach, average of two measurements
[8] = 90 mg/kg/d, average of two measurements
[9] = 90 mg/kg/d, half dose every 12 h into the stomach, average of two measurements
[10] = 150 mg/kg/d, average of two measurements
[11] = 150 mg/kg/d, half dose every 12 h into the stomach, average of two measurements
[12] = 180 mg/kg/d, average of two measurements
[13] = 180 mg/kg/d, half dose every 12 h into the stomach, average of two measurements

Row | SMILES | induction of CHOP protein (CHOP protein) | CHOP expression, time kinetics [1] | CHOP staining of tumor tissues ([2]; U87 xenograft) | Tumor tissue levels (approximately μmol/L) ([3]; 30 mg/kg/d) [µmol/L] | Tumor tissue levels [3, 6] [ng/mg] | Maximum plasma levels ([3]; 30 mg/kg/d) [µmol/L] | Maximum plasma levels [3, 7] | Tumor tissue levels (approximately μmol/L) ([3]; 90 mg/kg/d) [µmol/L] | Tumor tissue levels [3, 8] [ng/mg] | Maximum plasma levels ([3]; 90 mg/kg/d) [µmol/L] | Maximum plasma levels [3, 9] | Tumor tissue levels (approximately μmol/L) ([3]; 150 mg/kg/d) [µmol/L] | Tumor tissue levels [3, 10] [ng/mg] | Maximum plasma levels ([3]; 150 mg/kg/d) [µmol/L] | Maximum plasma levels [3, 11] | Tumor tissue levels (approximately μmol/L) ([3]; 180 mg/kg/d) [µmol/L] | Tumor tissue levels [3, 12] [ng/mg] | Maximum plasma levels ([3]; 180 mg/kg/d) | Maximum plasma levels [3, 13] | IC50 [4] [µM] | further results
1 | Cc1ccc(-c2cc(C(F)(F)F)nn2-c2ccc(S(N)(=O)=O)cc2)cc1 [celecoxib, 4-[5-(4-methylphenyl)-3-(trifluoromethyl)-1H-pyrazol-1-yl]benzenesulfonamide] | potently induce CHOP | noticeable lower compared with DMC | positive for CHOP | ~0.046 | 17.53 | 18.2 | 6,950 μg/L | ~0.116 | 44.03 | 24.8 | 9,450 μg/L | ~0.161 | 61.23 | 36.8 | 14,000 μg/L | ~0.25 | 94.78 | 45 µmol/L | 17,000 μg/L | ~50 | reduction of ongoing translation (cellular translation; 80 μmol/L): ~90%; Tumor tissue levels (approximately μmol/L) ([3]; 180 mg/kg/d, listed as Cxb): ~0.249 µmol/L; Maximum plasma levels ([3]; 180 mg/kg/d, listed as Cxb): 44.6 µmol/L; sensitivity of LN229 compared with the other glioblastoma cell lines [5]: slightly less sensitive
2 | Cc1ccc(C)c(-c2cc(C(F)(F)F)nn2-c2ccc(S(N)(=O)=O)cc2)c1 [DMC, 4-[5-(2,5-dimethylphenyl)-3-(trifluoromethyl)-1H-pyrazol-1-yl]benzenesulfonamide] | potently induce CHOP | pronounced induction of CHOP | positive for CHOP | ~0.021 | 8.27 | 7.6 | 3,035 μg/L | ~0.037 | 14.44 | 8.0 | 3,190 μg/L | ~0.099 | 39.04 | 23.8 | 9,500 μg/L | ~0.280 | 110.42 | 45 µmol/L and 45.5 µmol/L | 18,200 μg/L | < 40 | increase in CHOP or GRP78 protein, concentration dependence ([1]; U251, 15 hours, concentrations up to 75 or 100 μmol/L): potently induced; expression of GRP78 and CHOP ([1]; U251, increasing concentrations, 24 hours): strong induction of GRP78 and CHOP; time at which activation (cleavage) of caspase-4 was first noted ([1]; U251, 1 μM thapsigargin or 60 μM DMC): ~24 h; CHOP and GRP78 expression levels ([1]; U251, 1 μM thapsigargin or 60 μM DMC, prominent increase at 6 h and thereafter): substantially elevated; reduction of ongoing translation (cellular translation; 60 μmol/L): ~90%; CHOP expression in tumor tissue ([2]; U87MG xenograft, 1 mg/kg BZM and 7.5 mg/kg DMC individually or in combination, 50 h): did not cause much elevated CHOP expression; CHOP protein expression in tumor tissue ([2]; U87 xenograft, animals fed drug for 50 h): large increase in CHOP protein expression; sensitivity of LN229 compared with the other glioblastoma cell lines [5]: slightly less sensitive
